In ChEMBL document CHEMBL1158313, “Isolation of New Steroidal Hemiacetals from the Gorgonian Euplexaura anastomosans” (J Nat Prod, 1996):
Calls of active or inactive are those of the source. No cut-off for these calls is given here.

Experiments:
P388 = test: Cytotoxicity against mouse P388 cells; type: functional, cell-based
Artemia = test: Toxicity against brine shrimp larvae; type: organism-based; details: in vivo

Row | Compound | Activity (P388) | Activity (Artemia)
1 | CC(C)[C@H]1CC[C@H]([C@@]2(O)CC[C@H]3[C@@H]4CCC5=CC(=O)C=C[C@]5(C)[C@H]4CC[C@@]32C)[C@H](O)O1 [ANASTOMOSACETAL A] | inactive | Non-toxic
2 | CC(C)[C@H]1CC[C@H]([C@@]2(O)CC[C@H]3[C@@H]4CC[C@H]5CC(=O)C=C[C@]5(C)[C@H]4CC[C@@]32C)[C@H](O)O1 [ANASTOMOSACETAL B] | inactive | Non-toxic
3 | CC(C)[C@H]1CC[C@H]([C@@]2(O)CC[C@H]3[C@@H]4CCC5=CC(=O)CC[C@]5(C)[C@H]4CC[C@@]32C)[C@H](O)O1 [ANASTOMOSACETAL C] | inactive | Non-toxic
4 | CC(C)[C@H]1CC[C@H]([C@@]2(O)CC[C@H]3[C@@H]4CC[C@H]5CC(=O)CC[C@]5(C)[C@H]4CC[C@@]32C)[C@H](O)O1 [ANASTOMOSACETAL D] | inactive | Non-toxic
